The subject of test [1] is caspase-3. Put plainly: Western blot, caspase-3 in HCT-15 cells. Type of test: cell-based, human. Conditions: HCT-15, 0.625, 1.25, and 2.5 μM, p < 0.05, no concentration dependence. The method, then: The protein levels in HCT-15 cells were evaluated via Western blot analysis. The cells were cultured in dishes (10^7 cells per dish) and incubated overnight at 37 °C, 0.625, 1.25, 2.5, and 5 μM of 16 was added in triplicate after 24 h of incubation. Then, the cells were harvested and lysed in Laemmli buffer (glycerol, 1M TRIS pH 6.8, 1% SDS, MQ H2O and 20% β-mercaptoethanol). The samples were boiled for 5 min at 95 °C, and the protein content was determined using a BCA kit. Equal amounts of 30 μg of sample were placed on a Tris/HCl gel and separated by SDS-PAGE electrophoresis. Then, the samples were transferred to a PVDF membrane (Milibo, Co., Ltd., Billyka, MA, USA) and blocked with 5% skimmed milk powder for 2 h. Diluted primary antibodies Bcl-2 (1:3000), Bax (1:10,000), caspase-3 (l:2000), p62 (1:1000), Beclin1 (1:1000), LC3 (1:2000), and β-actin (1:1000) were incubated overnight at 4 °C, followed by a horseradish peroxidase-conjugated goat anti-rabbit IgG secondary antibody (ProteinTech, China) for 2 h at room temperature. Then, immunoreactivity was developed with diaminobenzidine solution, and scanned and recorded by a gel imaging system (G:BOX Chemi XL1.4, Frederick, MD, USA).
On the technique in general: A western blot detects proteins with antibodies after separation by electrophoresis.

Test [2] deals with human normal hepatocyte cells (L-02). Put plainly: MTT toxicity assay, normal hepatocytes L-02. The class given is cell-based. Conditions: 72 h, normal hepatocyte L-02 (toxicity), read-out: Antiproliferative Activity (IC50/μM) L-02. As to the method:
Human lung cancer cell (A549,), human umbilical vein endothelial cells (HUVECs,), human colon cancer cell lines (HCT-15), human breast cancer cells (MCF-7), human liver cancer cells (HepG2), human pancreatic cancer cells (BxPC-3), and human hepatic cell line (L-02) were obtained from the Sichuan University. A549, HUVECs, and L-02 were cultured in DMEM medium (high glucose, HyClone, GE Healthcare, Sydney, Australia). Human colon cancer cell lines HCT-15, human pancreatic cancer cells […] BxPC-3 were cultured in RPMI-1640. Human breast cancer cells MCF-7 and human liver cancer cells HepG2 were cultured in MEM medium. All the mediums, including 10% fetal bovine serum (FBS, HyClone, GE Healthcare, Sydney, Australia) and 1% ampicillin/streptomycin, were used to culture the above cells at 37 °C in a humidified atmosphere (5% CO2 and 95% air).
The antiproliferative activity of the title compounds was determined using the MTT (3-(4,5-dimethylthiazol-2-yl)-2,5-diphenyltetrazolium bromide, Sigma-Aldrich, Saint Louis, MO, USA) assay on different cells. Cells lines were seeded into 96-well plates at a density of 2000 to 6000 cells/well. DMSO was used to dissolve the test compounds, and TET was used as a positive control. After 24 h, the test compounds were added at different concentrations (0.625, 1.25, 2.5, 5, 10, and 20 μM) and incubated at 37 °C for 72 h. MTT was added to each well at a final concentration of 0.5 mg/mL and incubated at 37 °C for 4 h. Then, 150 μL of DMSO was added to each well to dissolve the formazan crystals. The absorbance was measured at 570 nm by a microplate reader (ELX800UV, Bio-Tek, Windoski, VT, USA). All measurements were repeated at least three times under the same conditions. Graphpad Prism 8.0 was used to calculate the IC50 values.
(In general: Formazan colour is commonly taken as a measure of viable cells.)

In test [3] the test system is HUVECs. Put plainly: Wound healing (migration) assay, HUVEC. Type of test: cell-based, human. Conditions: 10 μM, 24 h, control 85%. The method, then: HCT-15 cells or HUVECs were seeded in six-well culture plates and allowed to grow to 80–90% confluence. Subsequently, a cell-free line was manually created by scratching the confluent cell monolayers with a 200 μL sterile pipette tip, and the detached cells were washed with PBS. The cells were then incubated with 10% FBS and different concentrations of 16 (0.625, 1.25, 2.5, 5, and 10 μM). Then, 24 h later, images of the same location were obtained using a microscope (Nikon ECLIPSE TE2000-U, Tokyo, Japan). Each experiment was carried out at least three times.

Test [4] has as its system HCT-15 cells. Put plainly: Live/dead FDA/PI double staining, HCT-15. Type of test: cell-based. Particulars: Homo sapiens, HCT-15, FDA/PI, 48 h, read-out: Viable cells retained. As to the method:
HCT-15 or HUVEC cells were cultured in six-well plates for 24 h. The cells were washed with PBS and incubated with medium containing 0.625, 1.25, 2.5, 5, and 10 μM of 16 for 48 h. Afterwards, the medium was replaced, and the cells were washed twice with PBS, resuspended in the solution containing 100 μL FDA (0.02 mg/mL, Sigma, St. Louis, MO, USA) and 30 μL PI (0.02 mg/mL, Sigma, St. Louis, MO, USA), and treated in the dark at room temperature for 10 min. The cells were imaged with a fluorescence microscope (Nikon ECLIPSE TE2000-U, Tokyo, Japan).

Molecules are shown by their SMILES.

For the compound `COc1cc(NC(=O)[C@@H]2CCCN2)c2cc1Oc1ccc(cc1)C[C@H]1c3cc(c(OC)cc3CCN1C)Oc1c(OC)c(OC)cc3c1[C@H](C2)N(C)CC3` [Compound 16, 14-N-(L-proline)-tetrandrine], the Caspase-3 level entry in test [1] was “significantly decreased”. Also, the IC50 in test [2] is over 20 µM. The Migration rate in test [3] stood at 10.0%. Also, the viability at 5 µM in test [4] (5 μM) is 18.3%. For the same compound, the viability at 10 µM in test [4] (10 μM) was determined as 17.6%.

Source of the values: PMC9268013, “Design, Synthesis, and Biological Evaluation of N14-Amino Acid-Substituted Tetrandrine Derivatives as Potential Antitumor Agents against Human Colorectal Cancer” (Molecules, 2022).
